Assay type in all cases: biochemical
What all share (settings): casein as substrate

For assay [1], the target named is T1, TG1 (transglutaminase 1) (Homo sapiens, UniProt P22735).
T1 construct: purchased Zedira T009
T1 sequence (P22735 1-817): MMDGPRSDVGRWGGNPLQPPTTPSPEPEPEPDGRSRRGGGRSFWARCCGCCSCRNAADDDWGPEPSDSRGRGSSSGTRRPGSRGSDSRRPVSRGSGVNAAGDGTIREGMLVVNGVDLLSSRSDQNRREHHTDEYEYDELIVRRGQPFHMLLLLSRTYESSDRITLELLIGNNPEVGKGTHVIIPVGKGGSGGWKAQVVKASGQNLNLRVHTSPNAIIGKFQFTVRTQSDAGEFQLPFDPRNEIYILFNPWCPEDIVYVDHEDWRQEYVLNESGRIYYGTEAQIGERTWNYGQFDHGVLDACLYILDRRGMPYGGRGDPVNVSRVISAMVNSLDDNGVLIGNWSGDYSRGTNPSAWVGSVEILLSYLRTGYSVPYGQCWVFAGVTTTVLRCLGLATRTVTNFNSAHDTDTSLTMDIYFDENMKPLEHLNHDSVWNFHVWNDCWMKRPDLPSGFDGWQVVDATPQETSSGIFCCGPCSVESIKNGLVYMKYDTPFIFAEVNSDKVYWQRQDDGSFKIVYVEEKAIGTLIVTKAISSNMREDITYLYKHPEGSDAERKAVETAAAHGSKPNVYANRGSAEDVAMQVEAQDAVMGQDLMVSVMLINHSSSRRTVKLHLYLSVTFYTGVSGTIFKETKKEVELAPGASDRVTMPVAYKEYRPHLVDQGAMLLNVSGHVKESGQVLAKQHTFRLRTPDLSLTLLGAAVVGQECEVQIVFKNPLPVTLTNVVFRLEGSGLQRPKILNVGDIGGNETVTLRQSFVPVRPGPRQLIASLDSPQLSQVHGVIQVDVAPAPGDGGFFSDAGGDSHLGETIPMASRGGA
The experiment in a line: Comparative transglutaminase selectivity assay with casein and dansylcadaverine as substrates: TG1. From the text:
(§1) The comparative determination of different transglutaminases to determine the selectivity was made with casein and dansylcadaverine as substrates. Therefore, the kit T036 (Zedira, Darmstadt; Refs: Lorand et al, Anal Biochem, 1971, 44:221-31) as well as transglutaminase products T009 (transglutaminase 1), T012 (transglutaminase 3), T021 (transglutaminase 6) and T027 (plasma transglutaminase, factor XIII) are used. Therefore, two different IC50 values for the compounds are given.
(§2) The evaluation of the resulting enzyme activity is done using the slope of the straight line obtained by the increase in fluorescence.
(§3) To determine the non-inhibited enzyme activity, DMSO instead of inhibitor stock solution is used. IC50 values are determined by plotting the resulting enzyme activity against the logarithm of the inhibitor concentration. IC50 is defined as the concentration of inhibitor resulting in 50% of enzyme activity.
(§4) It should be noted that it was measured here against casein as substrate, which is why other apparent inhibition values (IC50 value) result.

Assay [2] concerns the target T2, TG6 (transglutaminase 6) (Homo sapiens, UniProt O95932).
T2 construct: purchased Zedira T021
T2 sequence (O95932 1-706): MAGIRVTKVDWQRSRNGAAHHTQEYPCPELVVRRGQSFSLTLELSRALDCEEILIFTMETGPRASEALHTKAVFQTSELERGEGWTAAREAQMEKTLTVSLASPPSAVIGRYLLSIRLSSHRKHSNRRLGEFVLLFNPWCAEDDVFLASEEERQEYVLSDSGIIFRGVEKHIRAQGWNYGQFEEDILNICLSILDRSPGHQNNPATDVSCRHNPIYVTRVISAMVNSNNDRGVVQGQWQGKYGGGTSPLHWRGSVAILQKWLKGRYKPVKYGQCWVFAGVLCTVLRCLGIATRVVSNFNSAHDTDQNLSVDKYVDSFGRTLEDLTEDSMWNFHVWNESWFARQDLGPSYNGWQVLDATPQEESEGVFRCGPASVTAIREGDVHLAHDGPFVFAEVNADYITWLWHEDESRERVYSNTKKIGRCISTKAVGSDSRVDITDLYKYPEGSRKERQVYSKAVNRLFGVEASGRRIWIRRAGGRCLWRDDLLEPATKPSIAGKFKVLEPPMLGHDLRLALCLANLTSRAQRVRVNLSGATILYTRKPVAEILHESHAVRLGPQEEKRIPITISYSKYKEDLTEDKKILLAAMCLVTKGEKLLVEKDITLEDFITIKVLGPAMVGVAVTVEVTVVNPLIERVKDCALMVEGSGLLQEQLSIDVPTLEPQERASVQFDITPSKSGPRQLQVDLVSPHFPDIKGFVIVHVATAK
The experiment in a line: Comparative transglutaminase selectivity assay with casein and dansylcadaverine as substrates: TG6.
Source text: as §1, §2, §3, §4

For assay [3], the target named is T3, TG3 (transglutaminase 3) (Homo sapiens, UniProt Q08188).
T3 construct: purchased Zedira T012
T3 sequence (Q08188 1-693): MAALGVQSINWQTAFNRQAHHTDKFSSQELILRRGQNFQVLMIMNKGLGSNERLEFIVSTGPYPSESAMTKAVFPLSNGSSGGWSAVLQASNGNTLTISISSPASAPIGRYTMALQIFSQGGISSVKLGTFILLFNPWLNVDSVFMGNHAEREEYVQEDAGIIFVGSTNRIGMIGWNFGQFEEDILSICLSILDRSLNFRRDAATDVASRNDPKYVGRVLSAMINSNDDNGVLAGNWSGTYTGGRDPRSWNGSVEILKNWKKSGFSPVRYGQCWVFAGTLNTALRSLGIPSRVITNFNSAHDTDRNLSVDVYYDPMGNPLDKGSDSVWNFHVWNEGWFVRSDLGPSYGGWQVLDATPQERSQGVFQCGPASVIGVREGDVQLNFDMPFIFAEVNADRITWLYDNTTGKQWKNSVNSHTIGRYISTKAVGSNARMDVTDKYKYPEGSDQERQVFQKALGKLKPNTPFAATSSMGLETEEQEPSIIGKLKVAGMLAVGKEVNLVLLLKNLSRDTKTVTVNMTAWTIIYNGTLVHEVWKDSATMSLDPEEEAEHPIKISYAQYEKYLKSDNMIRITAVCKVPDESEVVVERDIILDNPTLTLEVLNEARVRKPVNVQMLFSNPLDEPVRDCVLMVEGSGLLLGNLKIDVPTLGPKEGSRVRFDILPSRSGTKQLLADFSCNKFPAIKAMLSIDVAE
Briefly: Comparative transglutaminase selectivity assay with casein and dansylcadaverine as substrates: TG3.
Source text: as §1, §2, §3, §4

For the molecule `CCOC(=O)/C=C/CC[C@H](NC(C)=O)C(=O)Nc1cccn(CC(=O)NCCC(C)C)c1=O` [A7, (S,E)-Ethyl 6-acetamido-7-(1-(2-(isopentylamino)-2-oxoethyl)-2-oxo-1,2-dihydropyridin-3-ylamino)-7-oxohept-2-enoate], the IC50 in assay [1] stood at 28.8 µM; in assay [2], 51 µM; in assay [3], 84.1 µM.

`CCOC(=O)/C=C/CC[C@H](NC(=O)c1cncn1C)C(=O)Nc1cccn(CC(=O)NCCC(C)C)c1=O` [A19, (S,E)-Ethyl 7-(1-(2-(isopentylamino)-2-oxoethyl)-2-oxo-1,2-dihydropyridin-3-ylamino)-6-(1-methyl-1H-imidazole-5-carboxamido)-7-oxohept-2-enoate]: the IC50 in assay [1] stood at 96 µM; in assay [2], 54.3 µM; in assay [3] it was 128 µM.

With `CCOC(=O)/C=C/CC[C@H](NC(=O)CCC(=O)O)C(=O)Nc1cccn(CC(=O)NCCC(C)C)c1=O` [A24, (S,E)-4-(7-Ethoxy-1-(1-(2-(isopentylamino)-2-oxoethyl)-2-oxo-1,2-dihydropyridin-3-ylamino)-1,7-dioxohept-5-en-2-ylamino)-4-oxobutanoic acid], the IC50 in assay [1] came to 91.9 µM; in assay [2] it was 38.5 µM; in assay [3], 119 µM.

As for `COC(=O)/C=C/CC[C@H](NC(C)=O)C(=O)Nc1cccn(CC(=O)NCCC(C)C)c1=O` [A29, (S,E)-methyl 6-acetamido-7-(1-(2-(isopentylamino)-2-oxoethyl)-2-oxo-1,2-dihydropyridin-3-ylamino)-7-oxohept-2-enoate], the figures for the IC50 in assay [1], in assay [2] and in assay [3] were 28.1 µM, 83.3 µM and 70.9 µM, respectively.

As to `CCOC(=O)/C=C/CC[C@H](NC(=O)CCC(=O)O)C(=O)Nc1cccn(CC(=O)NCC(CC)CC)c1=O` [A30, (S,E)-4-(7-Ethoxy-1-(1-(2-(2-ethylbutylamino)-2-oxoethyl)-2-oxo-1,2-dihydropyridin-3-ylamino)-1,7-dioxohept-5-en-2-ylamino)-4-oxobutanoic acid], the figures for the IC50 in assay [1], in assay [2] and in assay [3] were 113 µM, 32.8 µM and 69 µM, respectively.

With `CCOC(=O)/C=C/CC[C@H](NC(C)=O)C(=O)Nc1cccn(CC(=O)N[C@H](C(=O)OC)[C@H](C)CC)c1=O` [A35, (S,E)-ethyl 6-acetamido-7-(1-(2-((2S,3R)-1-methoxy-3-methyl-1-oxopentan-2-ylamino)-2-oxoethyl)-2-oxo-1,2-dihydropyridin-3-ylamino)-7-oxohept-2-enoate], the IC50 came out at 87.1 µM in assay [1], 21.3 µM in assay [2] and 95.8 µM in assay [3].

Take `CCOC(=O)/C=C/CC[C@H](NC(C)=O)C(=O)Nc1cccn(CC(=O)NCCC(CC)CC)c1=O` [A42, (S,E)-ethyl 6-acetamido-7-(1-(2-(3-ethylpentylamino)-2-oxoethyl)-2-oxo-1,2-dihydropyridin-3-ylamino)-7-oxohept-2-enoate]: the values for the IC50 in assay [1], in assay [2] and in assay [3] were 86 µM, 36.7 µM and 104 µM, respectively.

As for `CCOC(=O)/C=C/CC[C@H](NC(=O)c1cncn1C)C(=O)Nc1cccn(CC(=O)N[C@H](C(=O)O)[C@H](C)CC)c1=O` [A53, (2S,3R)-2-(2-(3-((S,E)-7-Ethoxy-2-(1-methyl-1H-imidazole-5-carboxamido)-7-oxohept-5-enamido)-2-oxopyridin-1(2H)-yl)acetamido)-3-methylpentanoic acid], the IC50 is 68.9 µM in assay [1], 26.2 µM in assay [2] and 72.6 µM in assay [3].

For `CCOC(=O)/C=C/CC[C@H](NC(=O)c1cncn1C)C(=O)Nc1cccn(CC(=O)NCC(CC)CC)c1=O` [A58, (S,E)-Ethyl 7-(1-(2-(2-ethylbutylamino)-2-oxoethyl)-2-oxo-1,2-dihydropyridin-3-ylamino)-6-(1-methyl-1H-imidazole-5-carboxamido)-7-oxohept-2-enoate], the results for the half-maximal inhibitory concentration (IC50) in assay [1], in assay [2] and in assay [3] were 97.5 µM, 66 µM and 109 µM, respectively.

For `CCOC(=O)/C=C/CC[C@H](NC(=O)c1ccccc1)C(=O)Nc1cccn(CC(=O)N[C@H](C(=O)O)[C@H](C)CC)c1=O` [A59, (2S,3R)-2-(2-(3-((S,E)-2-Benzamido-7-ethoxy-7-oxohept-5-enamido)-2-oxopyridin-1(2H)-yl)acetamido)-3-methylpentanoic acid], the IC50 was 37.1 µM in assay [1], 9.3 µM in assay [2] and 41.1 µM in assay [3].

Turning to `CC[C@@H](C)[C@H](NC(=O)Cn1cccc(NC(=O)[C@H](CC/C=C/C(=O)OC)NC(=O)c2cncn2C)c1=O)C(=O)O` [A60, (2S,3R)-2-(2-(3-((S,E)-7-Methoxy-2-(1-methyl-1H-imidazole-5-carboxamido)-7-oxohept-5-enamido)-2-oxopyridin-1(2H)-yl)acetamido)-3-methylpentanoic acid], the IC50 in assay [1] was 31.1 µM; in assay [2], 11.5 µM; in assay [3] it was 42.3 µM.

For the molecule `CC[C@@H](C)[C@H](NC(=O)Cn1cccc(NC(=O)[C@H](CC/C=C/C(=O)OC)NC(=O)c2ccccc2)c1=O)C(=O)O` [A61, (2S,3R)-2-(2-(3-((S,E)-2-benzamido-7-methoxy-7-oxohept-5-enamido)-2-oxopyridin-1(2H)-yl)acetamido)-3-methylpentanoic acid], the IC50 came out at 15.3 µM in assay [1], 4.3 µM in assay [2] and 17.6 µM in assay [3].

`CCOC(=O)/C=C/CC[C@H](NC(C)=O)C(=O)Nc1cccn(CC(=O)NCC(CC)CC)c1=O` [A62, (S,E)-Ethyl 6-acetamido-7-(1-(2-(2-ethylbutylamino)-2-oxoethyl)-2-oxo-1,2-dihydropyridin-3-ylamino)-7-oxohept-2-enoate]: the IC50 in assay [1] worked out at 133 µM; in assay [2] it was 47 µM; in assay [3] it was 99.7 µM.

With `CCC(CC)CNC(=O)Cn1cccc(NC(=O)[C@H](CC/C=C/C(=O)OC)NC(=O)c2cncn2C)c1=O` [A63, (S,E)-Methyl 7-(1-(2-(2-ethylbutylamino)-2-oxoethyl)-2-oxo-1,2-dihydropyridin-3-ylamino)-6-(1-methyl-1H-imidazole-5-carboxamido)-7-oxohept-2-enoate], the figures for the IC50 in assay [1], in assay [2] and in assay [3] were 51.8 µM, 31.5 µM and 73.9 µM, respectively.
